Data from patent US10105313B2, “Uses of rose pigment compounds” (SUNTORY HOLDINGS LIMITED, priority 2014, dated 2018).
Converted amounts (≈) assume the structure as drawn. “Also recorded” adds a separate entry of the source.

What was measured:
Assay type in all cases: biochemical
hyaluronidase = hyaluronidase (Bos taurus, UniProt Q2YDK3); experiment: Hyaluronidase inhibition test; conditions: for inhibition at 20 µg/mL: test concentration 20 μg/ml; for inhibition at 20 µg/mL / inhibition at 40 µg/mL / inhibition at 80 µg/mL: read-out: Percent hyaluronidase inhibition (%); for inhibition at 40 µg/mL: test concentration 40 μg/ml; for hyaluronidase inhibitory activity (in words): statement in the text
Chain of hyaluronidase (Q2YDK3 entry or part of it): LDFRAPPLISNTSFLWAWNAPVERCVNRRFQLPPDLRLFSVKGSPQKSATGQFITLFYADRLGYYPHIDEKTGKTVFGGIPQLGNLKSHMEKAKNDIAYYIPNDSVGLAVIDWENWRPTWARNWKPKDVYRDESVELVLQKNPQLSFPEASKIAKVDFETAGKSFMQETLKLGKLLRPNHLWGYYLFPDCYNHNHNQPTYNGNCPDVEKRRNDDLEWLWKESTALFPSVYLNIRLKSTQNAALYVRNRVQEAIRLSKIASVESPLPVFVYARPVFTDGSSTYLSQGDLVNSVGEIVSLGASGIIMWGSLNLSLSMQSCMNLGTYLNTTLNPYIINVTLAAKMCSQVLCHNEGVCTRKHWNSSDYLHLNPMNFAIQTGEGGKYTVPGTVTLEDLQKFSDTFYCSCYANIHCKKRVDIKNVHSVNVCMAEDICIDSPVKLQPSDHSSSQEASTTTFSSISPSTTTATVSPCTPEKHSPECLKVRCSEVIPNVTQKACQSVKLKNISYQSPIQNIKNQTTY
Procedure: Tests for hyaluronidase inhibition of the extract prepared in Example 2 (hereinafter referred to as the “blue rose petal extract”), the HP-20 column fractions of the blue rose petal extract (60% acetonitrile fractions) and rosadelphin A1 were carried out in accordance with a modified version of the method described by Yumie Maeda et al. in Shokukin Eiseigaku Zasshi (Journal of the Food Hygiene Society of Japan) 31(3), 233-237 (1990). Hyaluronic acid is decomposed by hyaluronidase to give N-acetylhexosamine. To measure the hyaluronidase inhibitory activity, the reducing terminal N-acetylglucosamine was quantified in terms of absorbance due to color development as labeled by p-dimethylaminobenzaldehyde (product of Wako Pure Chemical Industries, Ltd. which is hereinafter abbreviated as p-DAB).
A sample solution (40 μL) in 10% DMSO was mixed with 20 μL of 1000 U/mL hyaluronidase (product of Sigma) dissolved in 0.1 M acetate buffer (pH 4.0) and the mixture was preheated at 37° C. for 20 minutes. To the heated mixture, 40 μL of 0.5 mg/mL Compound 48/80 (product of Sigma) dissolved in the same buffer was added and the resulting mixture was allowed to settle at 37° C. for 20 minutes undisturbed until the hyaluronidase was activated. To the solution, 100 μL of a solution of 0.8 mg/mL potassium hyaluronate was added to give a final concentration of 0.4 mg/mL and reaction was effected at 37° C. for 40 minutes; thereafter, 40 μL of 0.4 N sodium hydroxide in solution was added and the mixture was cooled with ice to quench the reaction. To the reaction mixture, 40 μL of 0.8 M boric acid in solution adjusted to pH 9.1 with 6 N NaOH was added and the resulting mixture was boiled at 100° C. for 3 minutes. The mixture was then cooled to room temperature in ice bath; to the cooled mixture, 1.2 mL of 10 mg/mL p-dimethylaminobenzaldehyde (p-DAB) in solution was added while it was shielded from light and after reaction was effected at 37° C. for 20 minutes, the absorbance at 585 nm (A585) was measured. The hyaluronidase inhibitory activity of the sample was expressed in terms of percent inhibition calculated from the following formula: Percent inhibition (%)={1−(a−b)/(c−d)}×100
a: A585 of the sample solution to which the enzyme was added
b: A585 of the sample solution to which no enzyme was added
c: A585 of the control solution to which the enzyme was added
d: A585 of the control solution to which no enzyme was added.
A positive control was prepared by adding not the sample solution, but 800 μg/ml (1.56 mM as molar concentration) of sodium chromoglycate (product of Sigma which is hereinafter abbreviated as DSCG) in an amount of 40 μL to give a test concentration of 160 μg/ml.

collagenase Type IV = experiment: Collagenase inhibition test; conditions: for collagenase inhibitory activity (in words): statement in the text
Procedure: The blue rose petal extract, fractions thereof as products of treatment on a column (60% acetonitrile fractions), rosadelphin A1, rosacyanin A1, and tellimagrandin 1 were subjected to a collagenase inhibition test in accordance with a modified version of the method described in a document (Wunsch et al., Hoppe Seylers Z Physiol Chem., 333, 149-51 (1963)). For details, see below.
An enzyme solution was prepared by dissolving […] of collagenase Type IV (product of Sigma) in 1 mL of dissolved water to give a concentration of 100 μg/mL (55.1 units/mL) and diluted 50 folds just before use. A substrate solution was prepared by dissolving PZ-peptide (4-phenylazo-benzyloxycarbonyl-Pro-Leu-Gly-Pro-D-Arg-OH) (Pz-Pro-Leu-Gly-Pro-D-Arg-OH; product of Sigma) in a […] calcium chloride containing tris-HCl buffer (pH 7.1) to give a concentration of 0.5 μg/mL. To 20 μL of a solution of sample dissolved in 10% DMSO, 20 μL of the enzyme solution and 160 μL of the substrate solution were added and the mixture was subjected to reaction at 37° C. for 30 minutes. Subsequently, 400 μL of a 25 mM citric acid solution was added to quench the reaction and Pz-Pro-Leu in the reaction mixture was extracted with 2 mL of ethyl acetate. The resulting ethyl acetate layer was measured for absorbance at a wavelength of 320 nm, with ethyl acetate being used as a control. The inhibitory activity of each sample was calculated in terms of the percent inhibition determined by the following formula: Percent collagenase inhibition (%)={1−(a−b)/(c−d)}×100 […]
a: Absorbance after […] reaction in the presence of added sample b: Absorbance after […] reaction in the presence of added sample c: Absorbance after 30 min reaction in the absence of added sample d: Absorbance after 0 min reaction in the absence of added sample.

elastase = target: T1, elastase (Sus scrofa, UniProt P00772); experiment: Elastase inhibition test; conditions: for elastase inhibiting activity (in words): statement in the text
T1 construct: purchased Sigma
T1 sequence (P00772 27-266): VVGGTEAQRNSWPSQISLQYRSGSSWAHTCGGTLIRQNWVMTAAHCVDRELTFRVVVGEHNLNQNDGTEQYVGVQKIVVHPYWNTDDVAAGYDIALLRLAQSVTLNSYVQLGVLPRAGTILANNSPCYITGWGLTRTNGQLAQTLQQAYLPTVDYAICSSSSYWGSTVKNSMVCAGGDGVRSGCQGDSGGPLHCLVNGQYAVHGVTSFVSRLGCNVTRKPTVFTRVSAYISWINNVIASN
Procedure: The blue rose petal extract, fractions thereof as products of treatment on a column (60% acetonitrile fractions), rosadelphin A1, rosacyanin A1, and tellimagrandin 1 were subjected to an elastase inhibition test that was performed by the following method.
An enzyme solution was prepared by dissolving 0.1 ml of elastase (product of Sigma) in 0.2 M Tris buffer at pH 8.0 (hereinafter referred to as a Tris buffer) to give a concentration of 0.05 units/mL and diluted 100 folds just before use. A substrate solution was prepared by dissolving N-Succinyl-Ala-Ala-Ala-p-nitroanilide (product of Sigma) in a Tris buffer to give a concentration of 4 mM. To a 96-well plate, 50 μL of a solution of each sample dissolved in 10% DMSO and 50 μL of the enzyme solution were added and after mixing them with a plate shaker, the resulting mixture was preheated at 25° C. for 10 minutes. Subsequently, 100 μL of the substrate solution was added and after mixing with a plate shaker, reaction was carried out at 25° C. for 30 minutes and immediately thereafter, the liberation of p-nitroaniline was assayed by measuring the absorbance at a wavelength of 405 nm (hereinafter designated as A405). A405 measurement was also performed for a blank of sample solution that was prepared by adding a Tris buffer in place of the substrate solution, as well as for a control solution that was prepared by adding 10% DMSO in place of the sample solution. The inhibitory activity of each sample was calculated in terms of the percent inhibition determined by the following formula: Percent elastase inhibition (%)=[(f−e)−{(b−a)−(d−c)}]/(f−e)×100 […]
a: A405(0 min) of the sample solution for enzymatic reaction b: A405(30 min) of the sample solution for enzymatic reaction c: A405(0 min) of the blank of sample solution d: A405(30 min) of the blank of sample solution e: A405(0 min) of the control solution f: A405(30 min) of the control solution.

[1] = Table 6, test concentration 40 μg/ml
[2] = Table 3, test concentration 80 μg/ml
[3] = Table 8, test concentration 40 μg/mL
[4] = Table 8, test concentration 80 μg/mL
[5] = Table 8, test concentration 160 μg/mL

SMILES: O=C([O-])c1cc(=O)c2c(OCC(O)COc3cccc4oc(C(=O)[O-])cc(=O)c34)cccc2o1.[Na+].[Na+] [DSCG, sodium chromoglycate, reference compound]
- Percent hyaluronidase inhibition (%) (hyaluronidase; Table 3, positive control at 160 μg/ml): * Percent inhibition by 160 μg/ml DSCG: 22.3%

SMILES: CC(C)CCP(=O)([O-])NCC(=O)N1CCCC1C(=O)NC(C)C(=O)[O-].[K+].[K+] [IP304, isoamylphosphonyl-Glycyl-L-Prolyl-L-Alanine, dipotassium salt, reference compound]
- Percent collagenase inhibition (%) (collagenase Type IV; Table 5, test concentration 80 μg/mL): * Percent inhibition by 80 μg/mL IP304: 84.1%
- Percent collagenase inhibition (%) (collagenase Type IV; [1]): *Percent inhibition by 40 μg/ml IP304: 69.7%

SMILES: O=C(OC1C(O)OC2COC(=O)c3cc(Oc4c(-c5ccc(O)c(O)c5)[o+]c5cc(O)cc6c5c4-c4c(C(=O)O)cc(O)c(O)c4O6)c(O)c(O)c3-c3c(cc(O)c(O)c3O)C(=O)OC2C1OC(=O)c1cc(O)c(O)c(O)c1)c1cc(O)c(O)c(O)c1 (centres unmarked) [Rosacyanin A1, rosacyanin A1]
- inhibition at 20 µg/mL (hyaluronidase; Table 3): 24.7%
- inhibition at 40 µg/mL (hyaluronidase; Table 3): 49.1%
- inhibition at 80 µg/mL (hyaluronidase; [2]): 93.2%
- hyaluronidase inhibitory activity (in words) (hyaluronidase): comparable activity to rosadelphin A1
- hyaluronidase inhibitory activity (in words) (hyaluronidase; listed as rosacyanin A1): strong hyaluronidase inhibitory activity
- Percent collagenase inhibition (%) (collagenase Type IV; [1]): 52.0%
- collagenase inhibitory activity (in words) (collagenase Type IV): greater activity than the blue rose petal extract
- elastase inhibiting activity (in words) (elastase): strong activity

SMILES: O=C(OC1C(O)OC2COC(=O)c3cc(Oc4c(-c5cc(O)c(O)c(O)c5)[o+]c5cc(O)cc6c5c4-c4c(C(=O)O)cc(O)c(O)c4O6)c(O)c(O)c3-c3c(cc(O)c(O)c3O)C(=O)OC2C1OC(=O)c1cc(O)c(O)c(O)c1)c1cc(O)c(O)c(O)c1 (centres unmarked) [Rosadelphin A1, rosadelphin A1]
- inhibition at 20 µg/mL (hyaluronidase; Table 3): 24.4%
- inhibition at 40 µg/mL (hyaluronidase; Table 3): 48.2%
- inhibition at 80 µg/mL (hyaluronidase; [2]): 95.3%
- hyaluronidase inhibitory activity (in words) (hyaluronidase; listed as rosadelphin A1): strong activity in a concentration dependent manner; also recorded: strong hyaluronidase inhibitory activity
- Percent collagenase inhibition (%) (collagenase Type IV; [1]): 42.3%
- collagenase inhibitory activity (in words) (collagenase Type IV): greater activity than the blue rose petal extract
- Percent elastase inhibition (%) (elastase; [3]): 31.8%
- inhibition at 40 µg/mL (elastase; Table 8, test concentration 40 μg/mL, read-out: Percent elastase inhibition (%)): 50.7%
- Percent elastase inhibition (%) (elastase; [4]): 40.4%
- inhibition at 80 µg/mL (elastase; Table 8, test concentration 80 μg/mL, read-out: Percent elastase inhibition (%)): 58.1%
- Percent elastase inhibition (%) (elastase; [5]): 49.4%
- inhibition at 160 µg/mL (elastase; Table 8, test concentration 160 μg/mL, read-out: Percent elastase inhibition (%)): 62%
- elastase inhibiting activity (in words) (elastase): comparable or more than comparable activity to rosacyanin A1
- elastase inhibiting activity (in words) (elastase; listed as rosadelphin A1): strong activity in a concentration dependent manner

SMILES: O=C(O[C@H]1[C@@H]2OC(=O)c3cc(O)c(O)c(O)c3-c3c(cc(O)c(O)c3O)C(=O)OC[C@H]2OC(O)[C@@H]1OC(=O)c1cc(O)c(O)c(O)c1)c1cc(O)c(O)c(O)c1 (some centres unmarked) [Tellimagrandin 1, tellimagrandin 1, reference compound]
- IC50 (hyaluronidase inhibition) (hyaluronidase; Table 3): 196.5 µg/mL (≈ 250 µM)
- Percent hyaluronidase inhibition (%) (hyaluronidase; [2]): 64.8%
- hyaluronidase inhibitory activity (in words) (hyaluronidase): also active, though not so active as rosadelphin A1
- Percent collagenase inhibition (%) (collagenase Type IV; [1]): 42.7%
- collagenase inhibitory activity (in words) (collagenase Type IV): greater activity than the blue rose petal extract
- Percent elastase inhibition (%) (elastase; [3]): 5.9%
- Percent elastase inhibition (%) (elastase; [4]): 4.6%
- Percent elastase inhibition (%) (elastase; [5]): 6.5%
- elastase inhibiting activity (in words) (elastase): weak activity
- elastase inhibiting activity (in words) (elastase; listed as tellimagrandin 1): little activity
